Results published in ChEMBL document CHEMBL4334553, “Discovery of Hydroxyamidine Based Inhibitors of IDO1 for Cancer Immunotherapy with Reduced Potential for Glucuronidation” (ACS Med Chem Lett, 2020).
One block for each compound: values may come before it. Activity calls are given as the source filed them. The calls are words filed in the database; no cut-off is given here.

What was measured:
[1] = target: T1, Indoleamine 2,3-dioxygenase 1 (Homo sapiens, UniProt P14902); assay: Inhibition of human N-terminal GST-tagged IDO1 expressed in Escherichia coli Rosetta(DE3) pLysS using L-tryptophan as substrate measured after 1 hr by fluorescence assay
[2] = target: T1, Indoleamine 2,3-dioxygenase 1; assay: Inhibition of IDO1 in interferon-gamma-induced human SKOV3 cells assessed as N-formylkynurenine formation using L-tryptophan as substrate measured after 24 hrs by fluorescence assay
UGT1A9 = target: T2, UGT1A9 (Homo sapiens, UniProt O60656); assay: Stability assessed as recombinant UGT1A9 (unknown origin) mediated compound glucuronidation by measuring half-life at 1 uM incubated in water bath by shaking at 37 degree C measured upto 60 mins in presence of UDPGA by LC-MS/MS analysis; assay type: ADME
T2 sequence (O60656 whole entry): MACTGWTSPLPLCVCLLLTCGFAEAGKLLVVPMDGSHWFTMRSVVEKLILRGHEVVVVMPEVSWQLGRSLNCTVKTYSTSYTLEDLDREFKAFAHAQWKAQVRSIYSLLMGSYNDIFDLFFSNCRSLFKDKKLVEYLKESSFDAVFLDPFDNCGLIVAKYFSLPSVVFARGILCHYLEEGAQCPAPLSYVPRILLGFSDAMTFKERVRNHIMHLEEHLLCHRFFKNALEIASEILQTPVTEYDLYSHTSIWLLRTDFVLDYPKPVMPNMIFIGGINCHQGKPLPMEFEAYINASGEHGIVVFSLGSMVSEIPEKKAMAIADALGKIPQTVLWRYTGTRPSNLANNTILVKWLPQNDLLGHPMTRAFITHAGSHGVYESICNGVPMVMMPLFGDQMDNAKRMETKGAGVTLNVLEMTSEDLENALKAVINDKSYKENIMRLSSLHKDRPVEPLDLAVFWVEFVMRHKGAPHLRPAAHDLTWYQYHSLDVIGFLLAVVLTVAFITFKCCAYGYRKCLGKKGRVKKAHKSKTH

[3] = Half life in human liver microsomes; assay type: ADME, Microsome
[4] = Half life in mouse liver microsomes; assay type: ADME, Microsome
[5] = AUC(0 to 12 hrs) at steady state in human assessed as ratio of glucuronide to compound at 50 mg, bid measured after 10 days; assay type: ADME; conditions: in vivo
[6] = target: Tryptophan 2,3-dioxygenase (Homo sapiens, UniProt P48775); assay: Inhibition of TDO in human HEK cells; assay type: cell-based
[7] = target: T1, Indoleamine 2,3-dioxygenase 1; assay: Inhibition IDO1 in LPS/IFN-gamma stimulated human whole blood assessed as reduction in tryptophan/kynurenine level preincubated for 15 mins followed by LPS/IFN-gamma stimulation measured after 20 hrs by LC-MS/MS analysis; assay type: tissue-based
Cytochrome P450 3A4 = Cytochrome P450 3A4 (Homo sapiens, UniProt P08684); assay: Inhibition of CYP3A4 (unknown origin); assay type: ADME
Cytochrome P450 2D6 = Cytochrome P450 2D6 (Homo sapiens, UniProt P10635); assay: Inhibition of CYP2D6 (unknown origin); assay type: ADME
Cytochrome P450 2C9 = Cytochrome P450 2C9 (Homo sapiens, UniProt P11712); assay: Inhibition of CYP2C9 (unknown origin); assay type: ADME
Cytochrome P450 2C19 = Cytochrome P450 2C19 (Homo sapiens, UniProt P33261); assay: Inhibition of CYP2C19 (unknown origin); assay type: ADME
[8] = Cmax in mouse at 10 mg/kg, po by capillary micro-sampling analysis; assay type: ADME, organism-based; design: dose 10 mg/kg, route oral; conditions: in vivo
[9] = AUC (0 to 24 hrs) in mouse at 10 mg/kg, po by capillary micro-sampling analysis; assay type: ADME, organism-based; design: dose 10 mg/kg, time < 24 hr, route oral; conditions: in vivo
[10] = Half life in mouse at 10 mg/kg, po by capillary micro-sampling analysis; assay type: ADME, organism-based; conditions: in vivo
[11] = Half life in rat liver microsomes; assay type: ADME, Microsome
[12] = Protein binding in human plasma; assay type: ADME, cell-free; conditions: read-out: PPB (converted)
[13] = Protein binding in mouse plasma; assay type: ADME, cell-free; conditions: read-out: PPB (converted)
[14] = Protein binding in rat plasma; assay type: ADME, cell-free; conditions: read-out: PPB (converted)
[15] = Cmax in rat at 5 mg/kg, po administered as single dose by capillary micro-sampling analysis; assay type: ADME, organism-based; design: dose 5 mg/kg, route oral; conditions: in vivo
[16] = AUC (0 to 24 hrs) in rat at 5 mg/kg, po administered as single dose by capillary micro-sampling analysis; assay type: ADME, organism-based; design: dose 5 mg/kg, time < 24 hr, route oral; conditions: in vivo
[17] = Clearance in rat at 1 mg/kg, iv administered as single dose by capillary micro-sampling analysis; assay type: ADME, organism-based; conditions: in vivo
[18] = Volume of distribution in rat at 1 mg/kg, iv administered as single dose by capillary micro-sampling analysis; assay type: ADME, organism-based; conditions: in vivo
[19] = Half-life in rat at 1 mg/kg, iv administered as single dose by capillary micro-sampling analysis; assay type: ADME, organism-based; conditions: in vivo
[20] = Oral bioavailability in rat at 5 mg/kg administered as single dose by capillary micro-sampling analysis; assay type: ADME, organism-based; conditions: in vivo
[21] = AUC in humanized PXB-mouse assessed as ratio of glucuronide to parent compound at 10 mg/kg, po administered as single dose; assay type: ADME, organism-based; conditions: in vivo
[22] = Cmax in humanized PXB-mouse assessed as ratio of glucuronide to parent compound at 10 mg/kg, po administered as single dose; assay type: ADME, organism-based; conditions: in vivo
CT26 [23] = assay: (§1) Antitumor activity against mouse CT26 cells implanted in immunocompetent BALB/c mouse assessed as reduction in tumour growth at 100 mg/kg, po administered twice daily over 15 days starting from day 10 post implantation measured thrice per week by digital caliper method; assay type: functional, organism-based
CT26 [24] = assay: as §1, with “Synergistic antitumor” for “Antitumor”, “implantation in presence of CTLA-4 antibody at 100 ug, ip administered at day 3,6,9” for “implantation”, “method and monitored for 45 days” for “method”; assay type: functional, organism-based
CT26 [25] = assay: Synergistic antitumor activity against mouse CT26 cells implanted in immunocompetent BALB/c mouse assessed as survival at […] at 100 mg/kg, po administered twice daily over 15 days starting from day 10 post implantation in presence of CTLA-4 antibody at 100 ug, ip administered at day 3,6,9 measured thrice per week and monitored for 45 days; assay type: functional, organism-based
Mus musculus = assay: In vivo inhibition of IDO1 in C57BL/6J mouse assessed as reduction in LPS-induced kynurenine level in plasma at 100 mg/kg, po administered via gavage measured after 24 hrs by LC-MS/MS analysis; assay type: functional, organism-based

T1 sequence (P14902 whole entry): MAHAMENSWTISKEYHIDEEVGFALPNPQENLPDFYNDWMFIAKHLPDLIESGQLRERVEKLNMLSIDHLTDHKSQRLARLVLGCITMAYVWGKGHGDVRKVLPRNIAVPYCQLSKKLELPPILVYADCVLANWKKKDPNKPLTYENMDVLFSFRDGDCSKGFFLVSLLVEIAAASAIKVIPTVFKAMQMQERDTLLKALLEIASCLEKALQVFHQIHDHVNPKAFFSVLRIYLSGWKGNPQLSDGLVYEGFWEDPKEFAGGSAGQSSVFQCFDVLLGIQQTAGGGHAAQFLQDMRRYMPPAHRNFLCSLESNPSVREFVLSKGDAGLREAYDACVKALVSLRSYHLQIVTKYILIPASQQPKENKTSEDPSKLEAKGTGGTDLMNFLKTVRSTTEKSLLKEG
Cytochrome P450 2C9, sequence (P11712 whole entry): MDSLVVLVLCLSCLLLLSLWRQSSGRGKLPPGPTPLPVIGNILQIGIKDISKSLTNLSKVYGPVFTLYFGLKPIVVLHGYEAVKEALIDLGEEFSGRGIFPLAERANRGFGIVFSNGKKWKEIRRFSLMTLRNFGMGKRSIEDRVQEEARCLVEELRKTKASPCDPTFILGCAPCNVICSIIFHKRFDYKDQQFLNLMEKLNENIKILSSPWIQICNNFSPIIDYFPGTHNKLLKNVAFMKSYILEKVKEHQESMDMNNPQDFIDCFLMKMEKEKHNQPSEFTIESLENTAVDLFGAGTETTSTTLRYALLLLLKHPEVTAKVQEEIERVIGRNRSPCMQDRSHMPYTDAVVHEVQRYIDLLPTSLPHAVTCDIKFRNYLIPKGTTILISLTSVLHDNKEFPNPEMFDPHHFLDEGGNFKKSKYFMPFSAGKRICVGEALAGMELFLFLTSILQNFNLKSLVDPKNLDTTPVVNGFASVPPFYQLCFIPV
Tryptophan 2,3-dioxygenase, sequence (P48775 whole entry): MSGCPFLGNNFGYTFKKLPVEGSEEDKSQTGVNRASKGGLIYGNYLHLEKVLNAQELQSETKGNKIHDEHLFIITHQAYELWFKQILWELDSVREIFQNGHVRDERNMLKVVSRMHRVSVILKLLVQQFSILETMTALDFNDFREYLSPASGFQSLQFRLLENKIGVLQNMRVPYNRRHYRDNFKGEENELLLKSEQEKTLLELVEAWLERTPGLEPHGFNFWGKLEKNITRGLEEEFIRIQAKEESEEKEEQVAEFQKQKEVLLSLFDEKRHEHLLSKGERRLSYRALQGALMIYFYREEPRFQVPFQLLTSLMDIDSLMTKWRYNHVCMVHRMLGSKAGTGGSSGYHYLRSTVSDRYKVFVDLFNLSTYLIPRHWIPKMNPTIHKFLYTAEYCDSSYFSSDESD
Cytochrome P450 3A4, sequence (P08684 whole entry): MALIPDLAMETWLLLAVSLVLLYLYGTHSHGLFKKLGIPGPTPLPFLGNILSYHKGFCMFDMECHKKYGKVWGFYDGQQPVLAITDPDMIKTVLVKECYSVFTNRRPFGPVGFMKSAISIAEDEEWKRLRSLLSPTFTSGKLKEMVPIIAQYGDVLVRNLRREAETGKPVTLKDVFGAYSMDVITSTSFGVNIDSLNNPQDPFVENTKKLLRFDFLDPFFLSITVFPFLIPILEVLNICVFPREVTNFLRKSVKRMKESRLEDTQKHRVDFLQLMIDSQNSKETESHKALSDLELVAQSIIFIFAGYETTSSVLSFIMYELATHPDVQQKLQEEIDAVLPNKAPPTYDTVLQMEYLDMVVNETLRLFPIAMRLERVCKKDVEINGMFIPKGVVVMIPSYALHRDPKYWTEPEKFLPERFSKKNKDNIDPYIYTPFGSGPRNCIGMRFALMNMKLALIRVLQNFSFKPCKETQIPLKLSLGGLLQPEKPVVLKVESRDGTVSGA
Cytochrome P450 2D6, sequence (P10635 whole entry): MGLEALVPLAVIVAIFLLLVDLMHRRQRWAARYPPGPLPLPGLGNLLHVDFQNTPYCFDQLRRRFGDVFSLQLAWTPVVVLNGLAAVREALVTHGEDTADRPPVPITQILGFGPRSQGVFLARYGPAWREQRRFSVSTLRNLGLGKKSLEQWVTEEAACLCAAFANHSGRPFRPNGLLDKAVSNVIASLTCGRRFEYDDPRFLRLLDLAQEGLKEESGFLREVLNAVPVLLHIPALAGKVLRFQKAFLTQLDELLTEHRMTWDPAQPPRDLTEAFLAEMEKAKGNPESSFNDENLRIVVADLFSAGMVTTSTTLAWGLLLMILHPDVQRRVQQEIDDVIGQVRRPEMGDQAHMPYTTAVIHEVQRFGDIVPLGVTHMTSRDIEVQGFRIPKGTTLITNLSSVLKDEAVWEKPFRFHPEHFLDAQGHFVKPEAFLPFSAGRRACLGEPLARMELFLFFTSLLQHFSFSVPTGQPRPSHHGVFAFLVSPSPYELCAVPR
Cytochrome P450 2C19, sequence (P33261 whole entry): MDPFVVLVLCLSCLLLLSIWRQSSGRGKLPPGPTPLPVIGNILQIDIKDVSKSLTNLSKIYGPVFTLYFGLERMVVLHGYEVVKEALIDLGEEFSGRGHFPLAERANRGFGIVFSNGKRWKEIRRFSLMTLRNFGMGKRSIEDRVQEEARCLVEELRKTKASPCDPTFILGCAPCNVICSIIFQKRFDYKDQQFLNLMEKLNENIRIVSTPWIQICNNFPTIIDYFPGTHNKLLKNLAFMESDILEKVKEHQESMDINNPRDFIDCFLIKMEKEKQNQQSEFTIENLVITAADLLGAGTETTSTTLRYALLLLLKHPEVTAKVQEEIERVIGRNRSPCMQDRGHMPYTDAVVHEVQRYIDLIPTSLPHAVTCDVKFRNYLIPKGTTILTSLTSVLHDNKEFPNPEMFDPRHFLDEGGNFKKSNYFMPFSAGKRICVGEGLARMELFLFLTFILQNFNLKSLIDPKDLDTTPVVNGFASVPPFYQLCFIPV

IC50 [1]: 0.13 µM
IC50 [2]: 0.0028 µM
half-life at 1 µM (UGT1A9): 0.183 h
SMILES: NS(=O)(=O)NCCSc1nonc1/C(=N/O)Nc1ccc(F)c(Br)c1

IC50 [1]: 0.15 µM
IC50 [2]: 0.012 µM
half-life at 1 µM (UGT1A9): 0.0483 h
SMILES: NS(=O)(=O)NCCOc1nonc1/C(=N/O)Nc1ccc(F)c(Br)c1

IC50 [1]: 0.1 µM
IC50 [2]: 0.014 µM
half-life [3]: 1.27 h
half-life [4]: 0.765 h
half-life at 1 µM (UGT1A9): 1.59 h
SMILES: CS(=O)(=O)CC(=O)NCCSc1nonc1/C(=N/O)Nc1ccc(F)c(C(F)F)c1

IC50 [1]: 0.03 µM
IC50 [2]: 0.0081 µM
half-life [3]: > 3 h
half-life [4]: 0.918 h
half-life at 1 µM (UGT1A9): 0.955 h
SMILES: NS(=O)(=O)CC(=O)NCCSc1nonc1/C(=N/O)Nc1cccc(Br)c1

Ratio [5]: 8.1
SMILES: NS(=O)(=O)NCCNc1nonc1/C(=N/OC1OC(C(=O)O)C(O)C(O)C1O)Nc1ccc(F)c(Br)c1 (centres undefined)

IC50 [1]: 0.18 µM
IC50 [2]: 0.0065 µM
half-life [3]: 2.77 h
half-life [4]: 0.278 h
half-life at 1 µM (UGT1A9): 1.73 h
SMILES: N#CCC(=O)NCCSc1nonc1/C(=N/O)Nc1ccc(F)c(C(F)F)c1

IC50 [1]: 0.093 µM
IC50 [2]: 0.021 µM
half-life [3]: > 3 h
half-life [4]: 2.75 h
half-life at 1 µM (UGT1A9): > 3 h
IC50 [6]: > 10 µM
IC50 [7]: 0.32 µM
IC50 (Cytochrome P450 3A4): > 10 µM
IC50 (Cytochrome P450 2D6): > 10 µM
IC50 (Cytochrome P450 2C9): > 10 µM
IC50 (Cytochrome P450 2C19): > 10 µM
Cmax [8]: 3.3 µM
AUC(0-t) at 24 h [9]: 30 µM·h
half-life [10]: 3.6 h
SMILES: NS(=O)(=O)NCC(=O)NCCSc1nonc1/C(=N/O)Nc1ccc(F)c(C(F)F)c1

IC50 [1]: 0.093 µM
IC50 [2]: 0.019 µM
half-life [3]: 1.57 h
half-life [4]: 0.398 h
half-life at 1 µM (UGT1A9): > 3 h
SMILES: C[C@@H](CSc1nonc1/C(=N/O)Nc1ccc(F)c(Br)c1)NC(=O)CS(N)(=O)=O

IC50 [1]: 0.021 µM
IC50 [2]: 0.01 µM
half-life [3]: > 3 h
half-life [4]: 1.26 h
half-life at 1 µM (UGT1A9): 0.9 h
IC50 [6]: > 10 µM
half-life [11]: 0.562 h
IC50 [7]: 0.22 µM
fraction unbound [12]: 0.046
fraction unbound [13]: 0.026
fraction unbound [14]: 0.043
IC50 (Cytochrome P450 3A4): > 10 µM
IC50 (Cytochrome P450 2D6): > 10 µM
IC50 (Cytochrome P450 2C9): > 10 µM
IC50 (Cytochrome P450 2C19): > 10 µM
Cmax [8]: 5 µM
AUC(0-t) at 24 h [9]: 11.9 µM·h
half-life [10]: 2.6 h
Cmax [15]: 5.6 µM
AUC(0-t) at 24 h [16]: 26 µM·h
clearance [17]: 0.219 L/h/kg
Vd [18]: 0.33 L/kg
half-life [19]: 1.5 h
bioavailability [20]: 28%
Ratio [21]: > 2
Ratio [22]: > 3
SMILES: NS(=O)(=O)CC(=O)NCCSc1nonc1/C(=N/O)Nc1cccc(Cl)c1
Activity (CT26 [23]): Active
Activity (CT26 [24]): Active
Activity (CT26 [25]): Active
inhibition (Mus musculus): Active

IC50 [1]: 0.23 µM
IC50 [2]: 0.039 µM
SMILES: COc1nonc1/C(=N/O)Nc1ccc(F)c(Br)c1

IC50 [1]: 0.084 µM
IC50 [2]: 0.013 µM
half-life [3]: 1.88 h
half-life [4]: 0.923 h
half-life at 1 µM (UGT1A9): 1.45 h
SMILES: NS(=O)(=O)CC(=O)NCCSc1nonc1/C(=N/O)Nc1ccc(F)c(C(F)(F)F)c1

IC50 [1]: 0.14 µM
IC50 [2]: 0.012 µM
half-life [3]: 1.95 h
half-life [4]: 0.44 h
half-life at 1 µM (UGT1A9): > 3 h
SMILES: NS(=O)(=O)CC(=O)NCCSc1nonc1/C(=N/O)Nc1cccc(C(F)(F)F)c1

half-life at 1 µM (UGT1A9): 0.383 h
SMILES: NS(=O)(=O)NCCNc1nonc1C(=NO)Nc1ccc(F)c(Br)c1 [EPACADOSTAT]
